Experimental findings from patent US8927500B2, “Peptidomimetic macrocycles” (Aileron Therapeutics, Inc., priority 2012, dated 2015) are described below.

Where a SMILES comes first, the peptide text is derived from it. Bridges are numbered along the chain shown (N, C = ends). [ ]: non-standard residue; d: D form. R8 = C=CCCCCCC[C@@](C)(N)C(=O)O; hLeu = CC(C)CC[C@H](N)C(=O)O; S5 = C=CCCC[C@](C)(N)C(=O)O

One may read the IC50 as the concentration that gives 50% inhibition. The term Ki denotes the equilibrium dissociation constant of an inhibitor or competing ligand from its target.

One test deals with Caspase 3. As to the kind of experiment: Caspase 3 detection assay in SJSA1 cells. The note with it: 48 h, Caspase 3 activation over DMSO-treated cells; for caspase 0.3 uM: 0.3 uM peptide; for caspase 3 uM: 3 uM peptide; for caspase 10 uM: 10 uM peptide; for caspase 30 uM: 30 uM peptide; for caspase 1 uM: 1 uM peptide. It is filed as cell-based.
Another test has as its system SJSA-1 cells. Description: Cell lysis by peptidomimetic macrocycles (LDH release). Format: cell-based. The settings on record: 1 h at 37C. (In general: LDH leaks from cells whose membrane has failed.)
The target in the next test is MDM2 (Homo sapiens, UniProt Q00987). Description: Competitive fluorescence polarization assay for MDM2. It is filed as binding. The note with it: competitive FP assay, MDM2; for IC50: read-out: IC50 (MDM2); for Ki: read-out: Ki (MDM2).
MDM2, sequence (Q00987 1-125): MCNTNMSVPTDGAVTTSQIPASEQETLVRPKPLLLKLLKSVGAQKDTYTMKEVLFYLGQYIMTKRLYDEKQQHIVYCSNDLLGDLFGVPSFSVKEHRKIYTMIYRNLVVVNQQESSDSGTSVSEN
Another test addresses T1, MDMX (Homo sapiens, UniProt O15151).
T1 sequence (O15151 1-125): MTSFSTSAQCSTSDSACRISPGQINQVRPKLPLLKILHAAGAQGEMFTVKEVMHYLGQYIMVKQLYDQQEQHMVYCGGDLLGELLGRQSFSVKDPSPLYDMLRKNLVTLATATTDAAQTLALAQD
As to the kind of experiment: Competitive fluorescence polarization assay for MDMX. It is filed as binding. The settings on record: competitive FP assay; for IC50: read-out: IC50 (MDMX); for Ki: read-out: Ki (MDMX).

Experimental for SJSA-1 cells: On the day of the assay, media was exchanged with RPMI 1% FBS media, 90 uL of media per well.
10 mM stock solutions of the peptidomimetic macrocycles were prepared in 100% DMSO.
The negative control (non-lytic) sample was 0.5% DMSO alone and positive control (lytic) samples include 10 uM Melittin and 1% Triton X-100.
Cell plates were incubated for 1 hour at 37C. After the 1 hour incubation, the morphology of the cells is examined by microscope and then the plates were centrifuged at 1200 rpm for 5 minutes at room temperature. 40 uL of supernatant for each peptidomimetic macrocycle and control sample is transferred to clear assay plates.

For the compound `CC(=O)N[C@@H](CC(C)C)C(=O)N[C@H](C(=O)N[C@@H](Cc1ccccc1)C(=O)N[C@]1(C)CCCCCC/C=C/CCC[C@@](C)(C(=O)N[C@@H](CO)C(=O)N[C@@H](C)C(=O)N[C@@H](C)C(N)=O)NC(=O)[C@H](CCC(C)C)NC(=O)[C@H](CCC(N)=O)NC(=O)[C@H](C)NC(=O)[C@H](Cc2c[nH]c3ccccc23)NC(=O)[C@H](Cc2ccc(O)cc2)NC(=O)[C@H](C)NC1=O)[C@@H](C)O` [compound 115] (Ac-LTF[R8]AYWAQ[hLeu][S5]SAA-NH2; staple (E) 4-11), in the test with Caspase 3, the “caspase 0.3 uM” value was 1, the “caspase 3 uM” value is recorded as 10, the “caspase 10 uM” value is given as 26 and the “caspase 30 uM” value stood at 32. Besides, in the test with SJSA-1 cells, the “6.25 uM % Lysed cells (1 h LDH)” value came to 0%, the “25 uM % Lysed cells (1 h LDH)” value is on record as −1% and the “50 uM % Lysed cells (1 h LDH)” value was determined as 6%. Besides, on MDM2, the IC50 is < 10 nM and the inhibition constant (Ki) is < 10 nM. In addition, on MDMX, the IC50 fell in the range of 100 to 1000 nM and the inhibition constant Ki fell in the range of 10 to 100 nM.

`CC(=O)N[C@@H](C)C(=O)N[C@@H](CC(C)C)C(=O)N[C@H](C(=O)N[C@@H](Cc1ccccc1)C(=O)N[C@]1(C)CCCCCCC=CCCC[C@@](C)(C(=O)N[C@@H](CO)C(=O)N[C@@H](C)C(=O)N[C@@H](C)C(=O)N[C@@H](C)C(=O)N[C@H](C)C(N)=O)NC(=O)[C@H](CC2CCC2)NC(=O)[C@H](CCC(N)=O)NC(=O)[C@H](C)NC(=O)[C@H](Cc2c[nH]c3ccccc23)NC(=O)[C@H](Cc2ccc(O)cc2)NC(=O)[C@H](CCC(=O)O)NC1=O)[C@@H](C)O` (single isomer, unassigned) [compound 357]: in the test on Caspase 3, the “caspase 0.3 uM” value was determined as 2, the “caspase 1 uM” value stood at 7, the “caspase 3 uM” value is given as 11 and the “caspase 10 uM” value was 15. Also, the “caspase 30 uM” value in the test with Caspase 3 came to 23. In the test with SJSA-1 cells, the “6.25 uM % Lysed cells (1 h LDH)” value turned out to be 0%, the “25 uM % Lysed cells (1 h LDH)” value is listed as 0% and the “50 uM % Lysed cells (1 h LDH)” value was found to be 0%. On MDM2, the IC50 was < 10 nM and the Ki is < 10 nM. Moreover, on MDMX, the IC50 was in the range of 10 to 100 nM and the Ki is < 10 nM.

`CC(=O)N[C@@H](CC(C)C)C(=O)N[C@H](C(=O)N[C@@H](Cc1ccccc1)C(=O)N[C@]1(C)CCCCCCC=CCCC[C@@](C)(C(=O)N[C@@H](C)C(=O)N[C@@H](C)C(=O)N[C@@H](C)C(=O)N[C@@H](C)C(=O)N[C@@H](C)C(=O)N[C@H](C)C(N)=O)NC(=O)[C@H](CC2CCC2)NC(=O)[C@H](CCC(N)=O)NC(=O)[C@H](C)NC(=O)[C@H](Cc2c[nH]c3ccccc23)NC(=O)[C@H](Cc2ccc(O)cc2)NC(=O)[C@H](CCC(=O)O)NC1=O)[C@@H](C)O` (single isomer, unassigned) [compound 347]: in the test on Caspase 3, the “caspase 0.3 uM” value is 2, the “caspase 1 uM” value was 3, the “caspase 3 uM” value is reported as 5 and the “caspase 10 uM” value was 8. The “caspase 30 uM” value in the test with Caspase 3 came to 29. Also, in the test with SJSA-1 cells, the “6.25 uM % Lysed cells (1 h LDH)” value is 0%, the “25 uM % Lysed cells (1 h LDH)” value stood at 0% and the “50 uM % Lysed cells (1 h LDH)” value was found to be 0%. Further, on MDM2, the half-maximal inhibitory concentration (IC50) lay within 10 to 100 nM and the inhibitory constant (Ki) is < 10 nM. Moreover, at MDMX, the concentration for half-maximal inhibition (IC50) lay within 10 to 100 nM and the Ki is 10 to 100 nM.

On to `CC(=O)N[C@@H](C)C(=O)N[C@@H](C)C(=O)N[C@@H](CC(C)C)C(=O)N[C@H](C(=O)N[C@@H](Cc1ccccc1)C(=O)N[C@]1(C)CCCCCCC=CCCC[C@@](C)(C(=O)N[C@@H](CO)C(=O)N[C@@H](C)C(=O)N[C@@H](C)C(=O)N[C@@H](C)C(=O)N[C@H](C)C(N)=O)NC(=O)[C@H](CC2CCC2)NC(=O)[C@H](CCC(N)=O)NC(=O)[C@H](C)NC(=O)[C@H](Cc2c[nH]c3ccccc23)NC(=O)[C@H](Cc2ccc(O)cc2)NC(=O)[C@H](CCC(=O)O)NC1=O)[C@@H](C)O` (single isomer, unassigned) [compound 359], for which, in the test with Caspase 3, the “caspase 0.3 uM” value was found to be 3, the “caspase 1 uM” value turned out to be 9, the “caspase 3 uM” value is reported as 11 and the “caspase 10 uM” value is on record as 13. For the same compound, in the test with Caspase 3, the “caspase 30 uM” value was found to be 23. In the test with SJSA-1 cells, the “6.25 uM % Lysed cells (1 h LDH)” value is 0%, the “25 uM % Lysed cells (1 h LDH)” value is 0% and the “50 uM % Lysed cells (1 h LDH)” value was 0%. Besides, on MDM2, the 50% inhibitory concentration (IC50) is < 10 nM and the inhibitory constant (Ki) was < 10 nM. Also, on MDMX, the IC50 fell in the range of 10 to 100 nM and the Ki was 10 to 100 nM.

Take `CC[C@H](C)[C@H](NC(=O)[C@H](C)NC(=O)[C@H](CO)NC(=O)[C@]1(C)CCCC=CCCCCCC[C@@](C)(NC(=O)[C@H](Cc2ccccc2)NC(=O)[C@@H](NC(=O)[C@H](CC(C)C)NC(C)=O)[C@@H](C)O)C(=O)N[C@@H](C)C(=O)N[C@@H](Cc2ccc(O)cc2)C(=O)N[C@@H](Cc2c[nH]c3ccccc23)C(=O)N[C@@H](C)C(=O)N[C@@H](CCC(N)=O)C(=O)N[C@@H](CC(C)C)C(=O)N1)C(N)=O` [compound 8] (Ac-LTF[R8]AYWAQL[S5]SAI-NH2; staple 4-11): in the test with Caspase 3, the “caspase 3 uM” value was 1, the “caspase 10 uM” value came out at 19 and the “caspase 30 uM” value is on record as 25. For the same compound, in the test with SJSA-1 cells, the “6.25 uM % Lysed cells (1 h LDH)” value was −1%, the “25 uM % Lysed cells (1 h LDH)” value came out at 1% and the “50 uM % Lysed cells (1 h LDH)” value is 1%. Besides, at MDM2, the IC50 was 100 to 1000 nM and the Ki lay within 10 to 100 nM. Moreover, at MDMX, the IC50 lay within 100 to 1000 nM and the Ki was in the range of 10 to 100 nM.

With `CC(=O)N[C@@H](CC(C)C)C(=O)N[C@H](C(=O)N[C@@H](Cc1ccccc1)C(=O)N[C@]1(C)CCCCCCC=CCCC[C@@](C)(C(=O)N[C@@H](CO)C(=O)N[C@@H](CC(C)C)C(=O)N[C@@H](C)C(N)=O)NC(=O)[C@H](CC(C)C)NC(=O)[C@H](CCC(N)=O)NC(=O)[C@H](C)NC(=O)[C@H](Cc2c[nH]c3ccccc23)NC(=O)[C@H](Cc2ccc(O)cc2)NC(=O)[C@H](C)NC1=O)[C@@H](C)O` (single isomer, unassigned) [compound 118], in the test on Caspase 3, the “caspase 0.3 uM” value was found to be 1, the “caspase 3 uM” value worked out at 2, the “caspase 10 uM” value is 18 and the “caspase 30 uM” value is recorded as 27. In the test with SJSA-1 cells, the “6.25 uM % Lysed cells (1 h LDH)” value stood at 4%, the “25 uM % Lysed cells (1 h LDH)” value is recorded as 2% and the “50 uM % Lysed cells (1 h LDH)” value is 4%. At MDM2, the 50% inhibitory concentration (IC50) is < 10 nM and the Ki is < 10 nM. Further, at MDMX, the IC50 lay in the range of 100 to 1000 nM and the inhibition constant Ki was 10 to 100 nM.

Turning to `CC(=O)N[C@@H](CC(C)C)C(=O)N[C@H](C(=O)N[C@@H](Cc1ccccc1)C(=O)N[C@]1(C)CCCCCC/C=C\CCC[C@@](C)(C(=O)N[C@@H](CO)C(=O)N[C@@H](C)C(=O)N[C@@H](C)C(N)=O)NC(=O)[C@H](CCC(C)C)NC(=O)[C@H](CCC(N)=O)NC(=O)[C@H](C)NC(=O)[C@H](Cc2c[nH]c3ccccc23)NC(=O)[C@H](Cc2ccc(O)cc2)NC(=O)[C@H](C)NC1=O)[C@@H](C)O` [compound 114] (Ac-LTF[R8]AYWAQ[hLeu][S5]SAA-NH2; staple (Z) 4-11), in the test on Caspase 3, the “caspase 0.3 uM” value was determined as 1, the “caspase 3 uM” value was 6, the “caspase 10 uM” value stood at 28 and the “caspase 30 uM” value is given as 34. In addition, in the test on SJSA-1 cells, the “6.25 uM % Lysed cells (1 h LDH)” value was found to be 3%, the “25 uM % Lysed cells (1 h LDH)” value worked out at 4% and the “50 uM % Lysed cells (1 h LDH)” value came out at 9%. Moreover, on MDM2, the concentration for half-maximal inhibition (IC50) lay in the range of 10 to 100 nM and the Ki was < 10 nM. Besides, at MDMX, the half-inhibitory concentration (IC50) is 100 to 1000 nM and the Ki is 10 to 100 nM.

For the compound `CC(=O)N[C@@H](CC(C)C)C(=O)N[C@H](C(=O)N[C@@H](Cc1ccccc1)C(=O)N[C@]1(C)CCCCCCC=CCCC[C@@](C)(C(=O)N[C@@H](CO)C(=O)N[C@H](C(=O)NCC(N)=O)C(C)C)NC(=O)[C@H](CC(C)C)NC(=O)[C@H](CCC(N)=O)NC(=O)[C@H](C)NC(=O)[C@H](Cc2c[nH]c3ccccc23)NC(=O)[C@H](Cc2ccc(O)cc2)NC(=O)[C@H](C)NC1=O)[C@@H](C)O` [compound 123] (Ac-LTF[R8]AYWAQL[S5]SVG-NH2; staple 4-11), in the test with Caspase 3, the “caspase 0.3 uM” value is recorded as 1, the “caspase 3 uM” value is recorded as 1, the “caspase 10 uM” value is given as 6 and the “caspase 30 uM” value came out at 14. In the test on SJSA-1 cells, the “6.25 uM % Lysed cells (1 h LDH)” value was −2%, the “25 uM % Lysed cells (1 h LDH)” value was 5% and the “50 uM % Lysed cells (1 h LDH)” value amounted to 3%. Further, at MDM2, the 50% inhibitory concentration (IC50) was < 10 nM and the inhibition constant (Ki) is < 10 nM. On MDMX, the IC50 lay in the range of 100 to 1000 nM and the Ki is 10 to 100 nM.

On to `CC(=O)N[C@@H](C)C(=O)N[C@@H](CC(C)C)C(=O)N[C@H](C(=O)N[C@@H](Cc1ccccc1)C(=O)N[C@]1(C)CCCCCCC=CCCC[C@@](C)(C(=O)N[C@@H](CO)C(=O)N[C@@H](C)C(=O)N[C@@H](C)C(=O)N[C@H](C)C(N)=O)NC(=O)[C@H](CC2CCC2)NC(=O)[C@H](CCC(N)=O)NC(=O)[C@H](C)NC(=O)[C@H](Cc2c[nH]c3ccccc23)NC(=O)[C@H](Cc2ccc(O)cc2)NC(=O)[C@H](CCC(=O)O)NC1=O)[C@@H](C)O` (single isomer, unassigned) [compound 355], for which, in the test on Caspase 3, the “caspase 0.3 uM” value was 1, the “caspase 1 uM” value was 4, the “caspase 3 uM” value was 11 and the “caspase 10 uM” value turned out to be 13. Further, the “caspase 30 uM” value in the test on Caspase 3 is on record as 30. In the test with SJSA-1 cells, the “6.25 uM % Lysed cells (1 h LDH)” value is on record as 0%, the “25 uM % Lysed cells (1 h LDH)” value is 0% and the “50 uM % Lysed cells (1 h LDH)” value is on record as 0%. Also, on MDM2, the IC50 was < 10 nM and the Ki is < 10 nM. At MDMX, the IC50 fell in the range of 10 to 100 nM and the inhibition constant Ki was < 10 nM.
